From patent US20240368133A1, “Compounds for the Treatment of Pain, in Particular, Neuropathic Pain, and/or Other Diseases or Disorders that are Associated with AT2R and/or AT2R Mediated Signaling” (Confo Therapeutics N.V., priority 2021, published 2024)

Legend:
human AT1R = human AT1R (Homo sapiens (Human), UniProt P30556); test: Counterscreen radioligand binding assay, displacement of 125I-[Sar1, Ile8]-Angiotensin II, hAT1R WT; conditions: 125I-[Sar1, Ile8]-Ang II, semi-quantitative score
Procedure, shortened: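 Compounds displaced 0.05 nM 125I-[Sar1, Ile8]-Ang II from human AT1R in HEK-293 membranes (1 h, 25° C; Tris/MgCl2/EDTA/BSA buffer, pH 7.4). Readout was filtration and scintillation counting, with non-specific binding set by 10 μM [Sar1]-Ang II. Values are % displacement at 1 μM and […], or IC50 from eight-point four-parameter fits.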

[1] = Caco-2 permeability assay; format: in vitro ADME; conditions: human
Procedure: Caco-2 cells were cultured in 75 cm^2 flasks to 80-90% confluence according to the ATCC and Millipore recommendations (Arena A. et al., 2003) in humidified atmosphere at 37° C. and 5% CO2. Cells were detached with Trypsin/EDTA solution and resuspended in the cell culture medium to a final concentration of 2×10^5 cells/ml. 500 μl of the cell suspension was added to each well of HTS 24-Multiwell Insert System and 1000 μl of prewarmed complete medium was added to each well of the feeder-plate. Caco-2 cells were incubated in Multiwell Insert System for 21 days before the transport experiments. The medium in filter plate and feeder tray was refreshed every other day. After 21 days of the cell growth, the integrity of the monolayer was verified by measuring the transepithelial electrical resistance (TEER) for every well using the Millicell-ERS system ohm meter. The final TEER values were within the range 150-600 Ω×cm^2 (Srinivasan B. et al., 2015) as required for the assay conditions. 24-well insert plate was removed from its feeder plate and placed in a new sterile 24-well transport analysis plate. The inserts were washed with PBS after medium aspiration. To determine the rate of compounds transport in apical (A)-to-basolateral (B) direction, 300 μL of the test compound dissolved in transport buffer at 10 μM (HBSS, 25 mM HEPES, pH=7.4) was added into the filter wells; 1000 μL of buffer (HBSS, 25 mM HEPES, pH=7.4) was added to transport analysis plate wells. Propranolol, Atenolol, Quinidine and Digoxin were used as reference compounds. The plates were incubated for 90 min at 37° C. under continuous shaking at 50 rpm. 75 μL aliquots were taken from the donor and receiver compartments for LC-MS/MS analysis. All samples were mixed with 2 volumes of acetonitrile followed by protein sedimentation by centrifuging at 10000 rpm for 10 minutes. Supernatants were analyzed using the HPLC system coupled with tandem mass spectrometer. The apparent permeability (Papp) was calculated for Caco-2 permeability assay using the following equation:
• VA=volume of transport buffer in acceptor well • Area=surface area of the insert (equals to effective growth area of the insert −0.31 sq.cm) • Time=time of the assay • [drug]acc=concentration of test compound in acceptor well • [drug]initial,d=initial concentration of test compound in a donor well • Papp is expressed in 10^−6 cm/sec.
The % recovery can be useful in interpreting the Caco-2 data. If the recovery is very low, this may indicate poor solubility, binding of the compound to the test plate materials, metabolism by the Caco-2 cells, or accumulation of the compound in the cell monolayer. The % recovery was calculated using the following equation:
• Vacc=volume of compound solution in acceptor well […] • Vd=volume of compound solution in […] • Cacc=concentration of test compound in acceptor well (μM) • Cinitial,d=initial concentration of test compound in a donor well (μM)

human AT2R fused to Cb23 = human AT2R fused to Cb23 (Homo sapiens, UniProt P50052); test: Radioligand binding assay, displacement of 125I-[Sar1, Ile8]-Angiotensin II, hAT2R Cb23; conditions: displacement of 125I-[Sar1, Ile8]-Angiotensin II, human AT2R fused to Cb23, HEK-293 cell membrane preparations; read-out: Binding affinity on hAT2R_Cb23 IC50
Procedure, shortened: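 Membranes from HEK-293 cells expressing human AT2R fused to Cb23 were incubated with 0.05 nM 125I-[Sar1, Ile8]-Angiotensin II in 100 μL buffer (50 mM Tris, 5 mM MgCl2, 1 mM EDTA, 0.1% BSA, pH 7.4) for one hour at 25° C. Ligands were tested as eight-point dose-response curves in duplicate, with C21 and Angiotensin II as references.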

[2] = Caco-2 permeability assay; format: in vitro ADME; conditions: human, pH 7.4; Caco-2, BA

human AT1R, sequence (P30556 whole entry): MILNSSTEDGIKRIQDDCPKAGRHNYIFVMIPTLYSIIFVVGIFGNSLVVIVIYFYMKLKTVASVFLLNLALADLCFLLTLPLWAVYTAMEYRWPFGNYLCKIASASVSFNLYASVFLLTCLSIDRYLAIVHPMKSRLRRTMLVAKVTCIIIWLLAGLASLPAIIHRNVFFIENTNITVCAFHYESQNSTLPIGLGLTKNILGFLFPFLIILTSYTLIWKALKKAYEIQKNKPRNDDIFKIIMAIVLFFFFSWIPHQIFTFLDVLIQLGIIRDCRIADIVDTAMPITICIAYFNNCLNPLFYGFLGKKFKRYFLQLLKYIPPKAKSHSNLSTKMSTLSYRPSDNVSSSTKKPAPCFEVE
human AT2R fused to Cb23, sequence (P50052 whole entry, looked up, the tested form may be a part): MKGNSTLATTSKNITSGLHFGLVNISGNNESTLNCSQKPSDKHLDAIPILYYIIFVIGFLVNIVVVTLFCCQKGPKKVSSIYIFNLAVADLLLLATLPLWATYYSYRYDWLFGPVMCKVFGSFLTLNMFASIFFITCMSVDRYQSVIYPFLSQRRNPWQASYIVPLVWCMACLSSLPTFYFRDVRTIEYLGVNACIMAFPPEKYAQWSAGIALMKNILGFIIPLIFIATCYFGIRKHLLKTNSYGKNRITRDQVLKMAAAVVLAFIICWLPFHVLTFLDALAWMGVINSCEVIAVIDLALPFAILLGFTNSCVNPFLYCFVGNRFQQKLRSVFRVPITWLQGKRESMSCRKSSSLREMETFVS

inhibition at 1 µM (human AT1R; compound at 1 μM, read-out: % Displaced radioligand at 1 μM): < 30%
inhibition at 10 µM (human AT1R; compound at 10 μM, read-out: % Displaced radioligand at 10 μM): < 30%
efflux ratio at 90 min, 10 µM ([1]; Caco-2, pH 7.4): 11.3
recovery at 90 min, 10 µM ([1]; Caco-2, pH 7.4): 97%
Papp A→B at 90 min, 10 µM ([1]; pH 7.4, Caco-2, AB): 1.3 ×10⁻⁶ cm/s
IC50 (human AT2R fused to Cb23): 17.7 nM
Papp B→A at 90 min, 10 µM [2]: 14.7 ×10⁻⁶ cm/s
Structure (SMILES): CCc1cc(CC(C)C)cc(N2CCN(Cc3cccnn3)CC2)c1-c1nn[nH]n1 [Compound A-168]
